Tests used:
[1] = tested on: intervertebral disc; experiment: Disc height index (DHI) by Micro-CT after intradiscal injection in rabbits; assay type: in vivo, New Zealand rabbits; details: for DHI, with heparin / effect on DHI reduction caused by chondroitinase ABC: 0.35 mg heparin
Protocol: Being used as an antidote, the non-substrate GAG of the present invention is effective in vivo. In the case of chemonucleolysis by chondroitinase ABC, the enzyme is injected into the nucleus pulposus for partial digestion. The effective antidote will be able to inhibit the activity of chondroitinase ABC intradiscally, as well as the reduction of the size of the intervertebral disc. […] When comparing to the control animal, for which the intervertebral disc is injected with Chondroitinase ABC only, the reduction of the disc height can only be observed in the control animal. The detailed experimental result is illustrated in Example 6.
New Zealand rabbits weighing 2.5-3.0 kg were divided into two groups: (1) injection of Chondroitinase ABC (0.05 U and 0.15 U) and heparin (0.35 mg); and (2) injection of chondroitinase ABC (0.05 U and 0.15 U). Before injection of chondroitinase ABC with or without heparin, rabbits were fixed in the dorsal position and anesthetized by 10% chloral hydrate (1 ml/kg). The intervertebral disc (IVD) was located by means of portable x-ray fluoroscope and the injection of the chondroitinase ABC with or without heparin was under fluoroscopic guidance. Rabbits were sacrificed just after the injection and 3 weeks after of injection for collecting the spine. The disc height index (DHI) analyzed by using LaTheta™ Micro-CT scanners (Hitachi-Aloka) at a resolution of 48 um (FIG. 7) and is listed in Table 2.

[2] = molecular target: T1, chondroitinase ABC (Proteus vulgaris, UniProt P59807); experiment: Time profile of inhibition of chondroitinase ABC by heparin, absorbance at 232 nm; assay type: biochemical
T1 sequence (P59807 25-1021): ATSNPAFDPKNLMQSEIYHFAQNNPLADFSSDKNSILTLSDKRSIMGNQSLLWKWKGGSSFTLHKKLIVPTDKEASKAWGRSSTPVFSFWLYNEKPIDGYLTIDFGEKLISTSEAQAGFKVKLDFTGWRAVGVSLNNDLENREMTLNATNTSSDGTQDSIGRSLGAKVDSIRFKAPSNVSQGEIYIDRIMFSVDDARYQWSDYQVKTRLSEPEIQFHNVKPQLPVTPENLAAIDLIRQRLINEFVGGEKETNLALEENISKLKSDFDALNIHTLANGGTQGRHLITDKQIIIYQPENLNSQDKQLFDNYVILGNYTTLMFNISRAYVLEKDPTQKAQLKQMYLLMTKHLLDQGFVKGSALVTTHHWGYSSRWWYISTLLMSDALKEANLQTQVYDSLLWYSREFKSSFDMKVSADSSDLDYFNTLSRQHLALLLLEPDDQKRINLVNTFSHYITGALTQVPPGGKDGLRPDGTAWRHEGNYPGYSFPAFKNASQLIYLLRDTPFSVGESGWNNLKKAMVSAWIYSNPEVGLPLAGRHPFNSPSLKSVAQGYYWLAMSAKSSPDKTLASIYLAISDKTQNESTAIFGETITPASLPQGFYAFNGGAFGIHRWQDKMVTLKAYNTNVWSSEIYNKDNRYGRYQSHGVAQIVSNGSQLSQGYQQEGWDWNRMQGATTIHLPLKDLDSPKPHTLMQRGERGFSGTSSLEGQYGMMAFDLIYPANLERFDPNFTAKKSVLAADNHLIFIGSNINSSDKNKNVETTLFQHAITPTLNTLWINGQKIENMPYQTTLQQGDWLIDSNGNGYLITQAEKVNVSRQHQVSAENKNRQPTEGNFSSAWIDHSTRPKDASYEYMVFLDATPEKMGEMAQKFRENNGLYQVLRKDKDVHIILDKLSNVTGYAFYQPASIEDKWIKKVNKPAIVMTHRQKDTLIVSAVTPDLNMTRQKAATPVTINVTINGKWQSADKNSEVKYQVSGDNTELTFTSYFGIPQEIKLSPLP
Protocol: In one embodiment, the inhibition of chondroitinase ABC by heparin could be at a particular time point during the enzymatic treatment, so that the enzymatic action can be precisely terminated. […] The enzymatic reaction in the mixture, which is the digestion of the chondroitin sulfate polymer into unsaturated oligosaccharide or disaccharide, can be monitored at 232 nm with incubation in 37° C. The reaction can be incubated for 5 hours and at 1.5 and 2.5 hours, with suitable concentrations of heparin including, but not limited to, 0.1-0.01 times the chondroitin sulfate, being introduced for evaluating the time response of the inhibition effect. Detailed experimental results are illustrated in example 5.
Chondroitin sulfate and chondroitinase ABC were introduced into 50 mM Tris HCl buffered solution (pH 7.6), to a final concentration of 1 mg/ml and 0.001 U/ml. […] At time of 0 hour, 1.5 hour, and 2.5 hour, 0.01 mg/ml heparin was introduced into the reaction mixture separately into 3 reaction mixture, where the remaining reaction mixture was sampled and monitored at the same time interval as the 3 reaction mixture with heparin introduction. The progress of the enzymatic reaction was monitored by measuring the absorbance at 232 nm of a sample taken from the reaction mixture every 30 min.

[3] = molecular target: T1, chondroitinase ABC; experiment: Electrophoretic mobility shift assay (EMSA) of chondroitinase ABC and heparin; assay type: binding; details: 20 μg chondroitinase ABC with 3.8 μg heparin (about 0.2 nmol each), room temperature 30 min
Description: Further experiments can be applied to show the direct interaction, or more precisely binding, between GAG and chondroitinase. One of the experimental methods that can show the direct interaction between non-substrate GAG and chondroitinase (without introducing other molecule, like the substrate) is the electrophoretic mobility shift (EMSA) assay.
The principle of EMSA is that the mobility of biomolecules under electrophoresis is affected by the size and charge of the biomolecule. […] The overall size will increase and the mobility is usually changed in the gel electrophoresis. In other words, a shift in the position of the biomolecule in the gel will be observed if there is binding between the biomolecules. For studying the interaction between chondroitinase and non-substrate GAG, EMSA is conducted as described. 5-30 μg chondroitinase is mixed with (a) 0.5 molar ratio, (b) equal molar, and (c) 2 folds molar excess of GAG, and incubated at room temperature for at least 20 min, and more preferred 30 min. These mixtures are loaded onto native polyacrylamide gel and subjected to electrophoresis for 2.5 hours at 100 V. Two identical gels are prepared but stained with different staining solution (Alcian blue for GAG, and Coomassie blue for chondroitinase). […]

[4] = molecular target: T1, chondroitinase ABC; experiment: Disc dissolution assay with bovine tail nucleus pulposus, absorbance at 232 nm; assay type: biochemical
Description: In the case of using chondroitinase as a chemonucleolysis agent, the site of injection is a gel-like nucleus pulposus which is dense with chondroitin sulfate, collagen, and the other extra-cellular matrix. To evaluate the effect of these matrices on the inhibition, a disc dissolution assay can be conducted. In the experiment, the nucleus pulposus, of which chondroitin sulfate is composed of 65% dry weight, are collected from bovine tails. […]
Introducing the non-substrate GAG, e.g. heparin, into the solution together with the chondroitinase, results in suppression of the release of chondroitin sulfate tetrasaccharide and/or disaccharide from the nucleus pulposus sample, is therefore a strong indication of the inhibitory and antidote effect on the enzyme. This inhibition of tetrasaccharide/disaccharide release is reflected by the reduction of the absorbance at 232 nm when compared with the buffer solution in the presence chondroitinase only. […]
In disc dissolution assay, 6 intervertebral discs were obtained from a bovine tail. […] The absorbance at 232 nm of each solution was measured at 0 hours, 5 hours, and 20 hours after the immersion of the nucleus pulposus. The increase in absorbance was predominantly due to the dissolution of the small-molecule-containing unsaturated carbon-carbon double bond from the nucleus pulposus. […]

[5] = molecular target: T1, chondroitinase ABC; experiment: Chondroitinase enzyme inhibition assay, absorbance at 232 nm with chondroitin sulfate C; assay type: biochemical; details: 0.0125 mg/ml heparin; 0.01 U/ml chondroitinase ABC; 0.1 mg/ml chondroitin sulfate C; 37° C., 20 min
Protocol: Freeze-dried chondroitinase is reconstituted in 0.1-10 mg/ml BSA solution, preferably 1 mg/ml. The chondroitinase solution is serially diluted into a final concentration in the range of 0.065-0.35 U/ml, and more preferably 0.260-0.175 U/ml. Chondroitin sulfate C is dissolved in a buffer at pH 7.0-9.0, preferably at pH 8.0±0.1 with Tris-HCl, sodium phosphate, sodium acetate or sodium borate, preferably 10-250 mM, and more preferably 50 mM Tris-HCl as buffer. The final concentration of chondroitin sulfate C is at the range of 0.2-20 mg/ml. Chondroitinase solution and the chondroitin sulfate C solution are pre-incubated in 37° C. and mixed in a ratio of 1:50. The reaction mixture is further incubated for 20 min for allowing the enzymatic reaction proceeding. The absorbance of the reaction mixture is continuously monitored by spectrophotometer and the rate of the reaction is calculated by multiplying the slope of the absorbance-time curve with millimolar extinct coefficient of the reaction product at 232 nm (which is reported to be 5.5.). […]
2 mg/ml Chondroitin sulfate C solution was prepared by dissolving in buffer at pH 8.0 Tris-HCl (50 mM). […] The reaction mixture was further incubated at 37° C. for 20 min in spectrophotometer and the absorbance at 232 nm was continuously monitored. […] In FIG. 3, the absorbance of the solution without the presence of heparin at 232 nm increased linearly.

[6] = tested on: intervertebral disc; experiment: Disc height index (DHI) by Micro-CT after intradiscal injection in rabbits; assay type: in vivo, New Zealand rabbits; details: IVD injected with 0.05 U and 0.15 U chondroitinase ABC only

Substance | DHI, with heparin ([1]; 0 day after injection, 0.05 U chondroitinase ABC) | DHI, with heparin ([1]; 0 day after injection, 0.15 U chondroitinase ABC) | effect on DHI reduction caused by chondroitinase ABC ([1]; 0.05 U chondroitinase ABC) | effect on DHI reduction caused by chondroitinase ABC ([1]; 0.15 U chondroitinase ABC) | DHI, with heparin ([1]; 3 weeks after injection, 0.05 U chondroitinase ABC) | DHI, with heparin ([1]; 3 weeks after injection, 0.15 U chondroitinase ABC) | rate of increase in absorbance at 232 nm of the reaction mixture ([2]; 0.01 mg/ml heparin introduced at 0, 1.5 or 2.5 hour, 1 mg/ml chondroitin sulfate, 0.001 U/ml chondroitinase ABC, 37° C., 5 hours) | persistence of inhibition of the enzymatic reaction ([2]; 0.01 mg/ml heparin, throughout the 5 hours reaction period) | binding to chondroitinase ABC (EMSA, Alcian Blue stain) [3] | absorbance at 232 nm of solution (disc dissolution) ([4]; 1U/ml chondroitinase ABC and 1 mg/ml heparin in PBS with 10 mM sodium lactate, 0, 5, 20 hours) | inhibition of enzymatic reaction of chondroitinase (absorbance at 232 nm) [5] | DHI, without heparin ([1]; 0.05 U chondroitinase ABC only) | DHI, without heparin ([1]; 0.15 U chondroitinase ABC only) | DHI, without heparin ([1]; 3 weeks after injection, 0.05 U chondroitinase ABC only) | DHI, without heparin ([1]; 3 weeks after injection, 0.15 U chondroitinase ABC only) | absorbance at 232 nm of solution (disc dissolution) ([4]; 1U/ml chondroitinase ABC without heparin, compared with PBS and sodium lactate) | effect on DHI [6]
heparin | 0.081 | 0.085 | significantly inhibited the DHI reduction | inhibited the DHI reduction but the inhibitory effect was not as significant as at the lower concentration | 0.082 | 0.066 | significantly reduced | remains stable and constant | binds tightly to the enzyme | significantly reduced the absorbance | completely inhibited | – | – | – | – | – | –
Chondroitinase ABC | – | – | – | – | – | – | – | – | – | – | – | 0.082 | 0.071 | 0.044 | 0.048 | the absorbance increased remarkably | significantly reduction of DHI

Source: patent US20190249166A1, “Antidote for Chondroitinase” (priority 2018, published 2019)
